Laboratory results from ChEMBL document CHEMBL2016477, “Pimarane diterpenes from the fungus Epicoccum sp. HS-1 associated with Apostichopus japonicus” (Bioorg Med Chem Lett, 2012).
≈ marks a conversion by molar mass, not a printed value.

Assays:
KB = assay: Cytotoxicity against human KB cells; assay type: functional, cell-based
[1] = Cytotoxicity against multidrug resistant human KBv200 cells expressing p-glycoprotein; assay type: functional, cell-based

SMILES	IC50 (KB)	IC50 [1]
C=C[C@]1(C)C=C2[C@@H](O)C[C@H]3C(C)(C)CCC[C@]3(C)[C@@]2(O)CC1	> 100 mg/L	> 100 mg/L
C=C[C@]1(C)C=C2C(=O)C(O)=C3C(C)(C)CCC[C@]3(C)[C@@]2(O)CC1	20.7 mg/L (≈ 65.5 µM)	14.5 mg/L (≈ 45.7 µM)
C=C[C@]1(C)C=C2C(=O)[C@@]3(O)OC[C@@]4(CCCC(C)(C)[C@@]43O)[C@@]2(O)[C@H](O)C1 [DIAPORTHINS B]	3.86 mg/L (≈ 10.6 µM)	6.52 mg/L (≈ 17.9 µM)
